{
  "source": "patent US20120071320A1",
  "about": "“LIQUID AGRICULTURAL FORMULATIONS OF IMPROVED STABILITY” (priority 2010, published 2012)",
  "origin": "cited, not measured here",
  "conditions": "aqueous buffer solutions, both acidic and basic conditions",
  "data": [
    {"smiles": "COC(=O)c1sccc1S(=O)(=O)NC(=O)Nc1nc(C)nc(OC)n1", "note": "[thifensulfuron methyl]", "values": [
      {"measurement": "hydrolysis rate", "result": "relatively fast"}
    ]}
  ]
}
